We go through 11 molecules from patent USRE36187E, “Acyclic pyrrolo [2,3-d]pyrimidine analogs as antiviral agents” (The Regents of the University of Michigan, priority 1994, dated 1999).

Series [1] has as its system HCMV. Briefly: HCMV plaque (focus) reduction assay in HFF cells. The format is cell-based, human cytomegalovirus (Towne strain). The settings on record: in words. On the procedure:
(§1) The 148 strain of HSV-1 was used in most experiments and was provided by Dr. T. W. Schafer of Schering Corporation. The HF strain of HSV-1 was used in selected experiments and was obtained from Dr. G. H. Cohen, University of Pennsylvania. The Towne strain, plaque-purified isolate Po, of HCMV was a gift of Dr. Mark Stinski, University of Iowa.
Stock HCMV was prepared by infecting HFF cells at a multiplicity of infection (m.o.i.) of less than 0.01 plaque-forming units (p.f.u.) per cell. Cell growth medium was changed every four days until cytopathology was evident in all cells (approximately 21 days). Supernatant fluids were retained as the virus stock. Four days later, the remaining cells were disrupted by three cycles of freeze-thawing and the cell plus medium held as an additional source of virus. Storage was in liquid nitrogen.
(§2) HCMV was titered in 24-well cluster dishes which were planted to contain 5×10^4 HFF cells/well, grown as described above. When the cells were 70 to 80% confluent, 0.2 ml of the virus suspension was added per wall and adsorbed as described above. At least three ten-fold dilutions of each preparation were used. Following virus adsorption, the cell sheets were overlayed with 0.5% methocel (4000 CPS) in maintenance medium [(MEM) with 1.1 gm/liter NaHCO3, 100 units/ml penicillin G, 100 μg/ml streptomycin, and 5% fetal bovine serum]. The cultures were incubated in a humidified atmosphere of 4% CO2 -96% air. Viral foci were visible 5 to 7 days after infection using at least 10-fold magnification. Cells were fixed and stained by a 10-minute exposure to a 0.1% solution of crystal violet in 20% methanol 7 to 12 days after infection. Microscopic foci were enumerated at 20-fold magnification using a Nikon Profile Projector.
The effect of compounds of the replication of HCMV has been measured using both a plaque (focus) reduction assay and a titer (yield) reduction assay. For the former, HFF cells in 24-well culture dishes were infected with approximately 50 p.f.u. of HCMV per well using the procedures detailed above. Compounds dissolved in growth medium were added in three to six selected concentrations to triplicate wells following virus adsorption. Following incubation at 37° C. for 7 to 10 days, cell sheets were fixed, stained and microscopic foci were enumerated as described above. Drug effects were calculated as a percentage of reduction in number of foci in the presence of each drug concentration compared to the number observed in the absence of drug. DHPG (ganciclovir) was used as a positive control in all experiments.
(§3) Dose-response relationships were used to compare drug effects. These were constructed by linearly regressing the percent inhibition of parameters derived in the preceding sections against log drug concentrations. The 50% inhibitory (I50) concentrations were calculated from the regression lines using the methods described by Goldstein. See Goldstein, A., Biostatistics: An Introductory Text, MacMillan, N.Y., 1964, pp. 156-161. Along with the I50 concentration for visual cytotoxicity, the averaged I50 concentrations are compared to I50 concentrations for inhibition for HCMV or HSV-1 replication. Compounds for which the ratio of cytotoxicity I50 concentrations to antiviral I50 concentrations (in vitro therapeutic index) were greater than 10, were considered for further study.

The subject of the next series is KB cells. Nature of the series: Growth of KB cells (population doubling). The format is cell-based, human. On the procedure: (§4) Population doubling times and cell viability were measured in uninfected HFF and/or KB cells. Cells were planted in replicate 6-well plastic tissue culture dishes or in 25 cm^2 flasks as described above in part 1. Following an incubation period during which cells attached to the substrate, medium was decanted, the cell sheet rinsed once with HBS, and fresh medium added. The medium consisted of MEM(E) with 1.1 gm NaHCO3 /liter and 10% fetal bovine or calf serum plus appropriate log or half-log concentrations of drug. After additional periods of incubation from 1 to 72 hours at 37° C., cells were harvested by means of 0.05% trypsin plus 0.02% EDTA in a HEPES-buffered salt solution. Cells were enumerated using either a Coulter counter or a hemocytometer and viability determining using […] dye exclusion.
In more extensive cytotoxicity testing, the halogenated compounds were tested for effects on the growth of KB cells. Populations doubling times were calculated from the logarithmic portions of growth curves and were as follows: […]

The subject of series [2] is HCMV. Nature of the series: HCMV titer (yield) reduction assay in HFF cells. The class given is cell-based, human cytomegalovirus (Towne strain). The note with it: for HCMV titer reduction, fold better than acyclovir: FIG. 1; for HCMV titer reduction activity: in words, FIG. 2 or FIG. 3.
Text: as §1, §2
For titer reduction assays, HFF cells were planted as described above in 24-well cluster dishes or in 25 cm^2 flasks. When monolayers were approximately 70% confluent, HCMV was added at a m.o.i. of 0.5 p.f.u. per cell and adsorbed as detailed above. Compounds dissolved in growth medium were added in one or one-half logarithm 10 dilutions and incubation continued at 37° C. After 7 to 10 days of incubation, culture dishes or flasks were frozen at […] For titer determination, cells were thawed and then subjected to two more cycles of freezing and thawing at 37° C. Serial, one-logarithm10 dilutions of the final suspension were prepared and inoculated onto new cultures of HFF cells. Titer determination was as detailed above in part (1) (b).
as §3

For the next series, the system named is HFF cells. Nature of the series: Growth of human diploid fibroblasts (HFF cells). The format is cell-based. The settings on record: for population doubling of HFF cells: 100 μM, control cells underwent two doublings. On the procedure: as §4
The effect of these compounds on the growth of human diploid fibroblasts (HFF cells) was less pronounced. During a 70-hour incubation, control cells underwent two doublings. […] A 100 μM concentration reduced the number of cells by less than 10%.

For series [3] the following is noted: previously reported; cited from earlier work.
A short description of series [4]: Drug toxicity control in uninfected mice. The class given is in vivo. On the procedure:
(§5) Compound UMJD 183 and the drug ganciclovir (DHPG) were administered to groups of 15 mice each at doses and times of administration shown in Table 3. Each compound at all doses was administered intraperitoneally twice daily for five days beginning at either 6, 24 or 48 hours after virus inoculation. Animals were observed daily and the number dying each day recorded.
Even when the compound was administered 48 hours after virus infection, compound UMJD 183 reduced mortality from 80-93% in controls to 40% in the presence of 5.6 mg/kg of the drug. When UMJD 183 was administered sooner, 6 or 24 hours after virus infection, mortality was reduced further to 7 or 20%, respectively.
^d Drug toxicity control. No virus administered.

Another series deals with MCMV. Briefly: Mortality of mice infected with murine cytomegalovirus. The format is in vivo. On the procedure:
Compound UMJD 183 was tested in mice infected with murine cytomegalovirus (MCMV). This animal model has been recognized as having capabilities predictive of efficacy in humans.
as §5
^a Animlas were treated i.p. twice daily for 5 days with the doses
stated above. Treatment was initiated at the times indicated following

[5] abbreviates: 1.9 mg/kg i.p. twice daily, from 6 h.
Where [6] appears, read: 1.9 mg/kg i.p. twice daily, from 24 h.
Where [7] appears, read: 1.9 mg/kg i.p. twice daily, from 48 h.
[8] abbreviates: 5.6 mg/kg i.p. twice daily, from 6 h.
[9] abbreviates: 5.6 mg/kg i.p. twice daily, from 24 h.
Where [10] appears, read: 5.6 mg/kg i.p. twice daily, from 48 h.
Where [11] appears, read: 16.7 mg/kg i.p. twice daily, from 6 h.
[12] abbreviates: 16.7 mg/kg i.p. twice daily, from 24 h.
Setting [13] is: 16.7 mg/kg i.p. twice daily, from 48 h.
Where [14] appears, read: 50 mg/kg i.p. twice daily, from 6 h.
Where [15] appears, read: 50 mg/kg i.p. twice daily, from 24 h.
Where [16] appears, read: 50 mg/kg i.p. twice daily, from 48 h.

For the molecule `NC(=S)c1cn(COCCO)c2ncnc(N)c12` [UMJD 229, 4-Amino-7-(2-hydroxyethoxymethyl)pyrrolo[2,3-d]pyrimidine-5-thiocarboxamide], the “activity against HCMV” value in the series with HCMV [1] is on record as “active against HCMV”.

As to `Nc1ncnc2c1c(Br)cn2COCCO` [UMJD 102, 4Amino-5-bromo-7-(2-hydroxyethoxymethyl)pyrrolo[2,3-d]-pyrimidine], the cytostatic effect result in the series on KB cells (in words) is recorded as “cytostatic”. In the series with HCMV [2], the “HCMV titer reduction, fold better than acyclovir” value was “approximately 10 fold”. In addition, the “population doubling of HFF cells” value in the series on HFF cells (70 hours) is “one population doubling”. Besides, in the series with HFF cells (in words), the “effect on growth of HFF cells” value is “more pronounced”. The “activity against HCMV” value in the series on HCMV [1] is given as “active against HCMV”.

As for `Nc1ncnc2c1c(Cl)cn2COCCO` [UMJD 100, 4-Amino-5-chloro-7-(2-hydroxyethoxymethyl)pyrrolo[2,3-d]-pyrimidine], the “effect on KB cell growth” value in the series with KB cells (100 μM, in words) is given as “affected KB cell growth to only a minor extent”. In the series on HFF cells (10 or 32 μM, 70 hours, in words), the “decrease in number of HFF cells” value is given as “no decrease in the number of cells”. In the series with HCMV [1], the “activity against HCMV” value is given as “active against HCMV”.

`NC(=O)c1cn([C@@H]2O[C@H](CO)[C@@H](O)[C@H]2O)c2ncnc(N)c12` [sangivamycin]: in series [3], the “broad spectrum antiviral activity” value is listed as “Broad spectrum antiviral activity”.

`OCC(CO)OCn1cc(I)c2c(NO)ncnc21` [UMJD 329, 4-hydroxylamino-5-iodo-7-[(1,3-dihydroxy-2-propoxy)methyl]pyrrolo[2,3-d]pyrimidine]: the “HCMV titer reduction activity” value in the series on HCMV [2] is “active and nearly as potent as the 4-amino analogs”.

In the case of `OCC(CO)OCn1cc(Br)c2c(NO)ncnc21` [UMJD 299, 4-hydroxylamino-5-bromo-7-[(1,3-dihydroxy-2-propoxy)methyl]pyrrolo[2,3-d]pyrimidine], the “HCMV titer reduction activity” value in the series on HCMV [2] was “active and nearly as potent as the 4-amino analogs”.

In the case of `Nc1ncnc2c1ccn2[C@@H]1O[C@H](CO)[C@@H](O)[C@H]1O` [tubercidin], the “broad spectrum antiviral activity” value in series [3] is on record as “Broad spectrum antiviral activity”.

For `N#Cc1cn([C@@H]2O[C@H](CO)[C@@H](O)[C@H]2O)c2ncnc(N)c12` [toyocamycin], the “broad spectrum antiviral activity” value in series [3] is on record as “Broad spectrum antiviral activity”.

For the molecule `Nc1ncnc2c1c(Br)cn2COC(CO)CO` [UMJD 183, 4-amino-5-bromo-7-[(1,3-dihydroxy-2-propoxy)methyl]-pyrrolo[2,3-d]pyrimidine], the “time of KB cell growth in the presence of the drug before slowing or stopping” value in the series on KB cells (KB cells) is on record as “up to 20 hours”. Moreover, the “effect on growth of KB cells” value in the series with KB cells (in words) is recorded as “growth of KB cells also was inhibited, but to a lesser extent”. For the same molecule, in the series on KB cells (up to 32 μM, 50 hours), the “growth in the presence of up to 32 μM drug” value is “at a reduced rate”. The “MDD (Mean Day of Death), Toxicity” value in series [4] (16.7 mg/kg, no virus) turned out to be 5.0. Besides, the “deaths in uninfected animals” value in series [4] (all doses together, i.p.) was 1 death in 60 animals. For the same molecule, the “toxicity in uninfected animals” value in series [4] (in words, i.p.) is “virtually no toxicity”. Besides, the “HCMV titer reduction activity” value in the series with HCMV [2] was “most active”. Also, the “MDD (Mean Day of Death)” value turned out to be 6.2 with MCMV (setting [5]); 4.8 with MCMV (setting [6]); 4.8 in the series with MCMV (setting [7]); 8.0 in the series on MCMV (setting [8]); 6.3 with MCMV (setting [9]); 5.5 in the series with MCMV (setting [10]). Further, the “MDD (Mean Day of Death)” value in the series with MCMV (setting [11]) is 8.7; in the series with MCMV (setting [12]), 7.1; in the series with MCMV (setting [13]), 8.4; with MCMV (setting [14]) it was 10.8; with MCMV (setting [15]), 8.8; with MCMV (setting [16]), 7.5. Also, the “Mortality Percent” value in the series with MCMV (setting [5]) stood at 33%; in the series on MCMV (setting [6]), 60%; in the series on MCMV (setting [7]) it was 67%; in the series with MCMV (setting [8]), 7%; with MCMV (setting [9]), 20%; in the series with MCMV (setting [10]) it was 40%. Besides, the “Mortality Percent” value with MCMV (setting [11]) is 60%; with MCMV (setting [12]), 80%; in the series with MCMV (setting [13]) it was 87%; with MCMV (setting [14]) it was 60%; in the series with MCMV (setting [15]) it was 93%; in the series with MCMV (setting [16]), 97%. In the series on MCMV (5.6 mg/kg i.p., in words), the “increase in number of animals surviving” value was “highly significant increases in the number of animals surviving the virus infection”. Further, the “effect on life span (mean day of death)” value with MCMV (all doses, i.p.) was “prolonged life span (increased the mean day of death) at all doses”.

`OCC(CO)OCn1cc(Cl)c2c(NO)ncnc21` [UMJD 328, 4-hydroxylamino-5-chloro-7-[(1,3-dihydroxy-2-propoxy)methyl]pyrrolo[2,3-d]pyrimidine]: the “HCMV titer reduction activity” value with HCMV [2] was “active and nearly as potent as the 4-amino analogs”.

In the case of `Nc1ncnc2c1c(I)cn2COCCO` [UMJD 104, 4-Amino-5-iodo-7-(2-hydroxyethoxymethyl)pyrrolo[2,3-d]-pyrimidine], the “HCMV titer reduction, fold better than acyclovir” value in the series with HCMV [2] is “approximately 10 fold”. The “population doubling of HFF cells” value with HFF cells (70 hours) is recorded as “one population doubling”. Further, the “effect on growth of HFF cells” value in the series on HFF cells (in words) was “more pronounced”. For the same molecule, the “activity against HCMV” value in the series with HCMV [1] is listed as “active against HCMV”.
